What was measured:
[1] = test system: Beet Armyworm (Spodoptera exigua) ("BAW"), second instar larvae; assay: Bioassay on beet armyworm (BAW), 128-well diet tray assay; assay type: in vivo; conditions: Spodoptera exigua, read-out: BAW (Biological Results, rating)
Protocol: (§1) Certain molecules disclosed in this document were tested against BAW and CL using procedures described in the following examples. In the reporting of the results, the “BAW & CL Rating Table” was used (See Table Section).
(§2) Trays were covered with a clear self-adhesive cover and held at 25° C., 14:10 light-dark cycle for five to seven days. Percent mortality was recorded for the larvae in each well; activity in the eight wells was then averaged. The results are indicated in the table entitled “Table ABC: Biological Results” (See Table Section).

[2] = test system: Cabbage Looper (Trichoplusia ni) ("CL"), second instar larvae; assay: Bioassay on cabbage looper (CL), 128-well diet tray assay; assay type: in vivo; conditions: Trichoplusia ni, read-out: CL (Biological Results, rating)
Protocol: as §1, §2

| SMILES | pest or weed control at 50 µg/cm2 [1] | pest or weed control at 50 µg/cm2 [2] |
| --- | --- | --- |
| CCCc1ccc(C)cc1N1C(=O)CS/C1=N\C(=O)Nc1ccc(-c2ncn(-c3ccc(OC(F)(F)C(F)(F)F)cc3)n2)c(C)c1 [Compound J12, (Z)-1-(3-(5-Methyl-2-propylphenyl)-4-oxothiazolidin-2-ylidene)-3-(3-methyl-4-(1-(4-(perfluoroethoxy)phenyl)-1H-1,2,4-triazol-3-yl)phenyl)urea] | 50 to 100% | 50 to 100% |
| COc1cc(-c2ncn(-c3ccc(C(F)(F)F)cc3)n2)ccc1NC(=O)/N=C1\SCC(=O)N1c1cc(C)ccc1C(C)C [Compound J13, (Z)-1-(3-(2-Isopropyl-5-methylphenyl)-4-oxothiazolidin-2-ylidene)-3-(2-methoxy-4-(1-(4-(trifluoromethyl)phenyl)-1H-1,2,4-triazol-3-yl)phenyl)urea] | 50 to 100% | 50 to 100% |
| CCc1ccc(C)cc1N1C(=O)CS/C1=N\C(=O)Nc1ccc(-c2ncn(-c3ccc(OC(F)(F)C(F)(F)F)cc3)n2)c(C)c1 [Compound J14, (Z)-1-(3-(2-Ethyl-5-methylphenyl)-4-oxothiazolidin-2-ylidene)-3-(3-methyl-4-(1-(4-(perfluoroethoxy)phenyl)-1H-1,2,4-triazol-3-yl)phenyl)urea] | 50 to 100% | 50 to 100% |
| CCCc1ccc(C)cc1N1C(=O)CS/C1=N\C(=O)Nc1ccc(-c2ncn(-c3ccc(C(F)(F)F)cc3)n2)cc1C [Compound J15, (Z)-1-(3-(5-Methyl-2-propylphenyl)-4-oxothiazolidin-2-ylidene)-3-(2-methyl-4-(1-(4-(trifluoromethyl)phenyl)-1H-1,2,4-triazol-3-yl)phenyl)urea] | 50 to 100% | 50 to 100% |
| COc1ccc(C(C)C)c(N2C(=O)CS/C2=N\C(=O)Nc2ccc(-c3ncn(-c4ccc(OC(F)(F)F)cc4)n3)c(C)c2)c1 [Compound J22, (Z)-1-(3-(2-Isopropyl-5-methoxyphenyl)-4-oxothiazolidin-2-ylidene)-3-(3-methyl-4-(1-(4-(trifluoromethoxy)phenyl)-1H-1,2,4-triazol-3-yl)phenyl)urea] | 50 to 100% | 50 to 100% |
| Cc1ccc(C(C)C)c(N2C(=O)CS/C2=N\C(=O)Nc2ccc(-c3ncn(-c4ccc(OC(F)(F)F)cc4)n3)c(C)c2)c1 [Compound J23, (Z)-1-(3-(2-Isopropyl-5-methylphenyl)-4-oxothiazolidin-2-ylidene)-3-(3-methyl-4-(1-(4-(trifluoromethoxy)phenyl)-1H-1,2,4-triazol-3-yl)phenyl)urea] | 50 to 100% | 50 to 100% |
| Cc1ccc(C(C)C)c(N2C(=O)CS/C2=N\C(=O)Nc2ccc(-c3ncn(-c4ccc(OC(F)(F)C(F)(F)F)cc4)n3)cc2C)c1 [Compound J24, (Z)-1-(3-(2-Isopropyl-5-methylphenyl)-4-oxothiazolidin-2-ylidene)-3-(2-methyl-4-(1-(4-(perfluoroethoxy)phenyl)-1H-1,2,4-triazol-3-yl)phenyl)urea] | 50 to 100% | 50 to 100% |
| COc1ccc(C(C)C)c(N2C(=O)CS/C2=N\C(=O)Nc2ccc(-c3ncn(-c4ccc(OC(F)(F)C(F)(F)F)cc4)n3)cc2C)c1 [Compound J25, (Z)-1-(3-(2-Isopropyl-5-methoxyphenyl)-4-oxothiazolidin-2-ylidene)-3-(2-methyl-4-(1-(4-(perfluoroethoxy)phenyl)-1H-1,2,4-triazol-3-yl)phenyl)urea] | 50 to 100% | 50 to 100% |
| Cc1ccc(C(C)C)c(N2C(=O)CS/C2=N\C(=O)Nc2ccc(-c3ncn(-c4ccc(OC(F)(F)C(F)(F)F)cc4)n3)cc2F)c1 [Compound J26, (Z)-1-(2-Fluoro-4-(1-(4-(perfluoroethoxy)phenyl)-1H-1,2,4-triazol-3-yl)phenyl)-3-(3-(2-isopropyl-5-methylphenyl)-4-oxothiazolidin-2-ylidene)urea] | 50 to 100% | 50 to 100% |

Source: US20230077362A1 (CORTEVA AGRISCIENCE LLC, priority 2019, published 2023)
